Results on one compound are retold here after patent publication US20150253330A1, “PRE-SELECTION OF SUBJECTS FOR THERAPEUTIC TREATMENT WITH AN HSP90 INHIBITOR BASED ON HYPOXIC STATUS” (Synta Pharmaceuticals Corp., priority 2012, published 2015).

“Also recorded” adds a separate entry of the source.

The subject of one test is MDA-MB-231. Put plainly: 72 hr viability by CTG, breast cancer cell line. Format: cell-based. How it is done: (§1) Breast cancer is a heterogeneous disease historically broken down into 4 subtypes. Various compounds were tested for their effects in cell viability assays using various breast cancer cell lines. Cellular viability was assessed using the CellTiter-Glo® Luminescent Cell Viability Assay (Promega, Madison, Wis., USA) according to the manufacturer's protocol. KRAS mutant NSCLC cell lines were seeded into 96-well plates based on optimal growth rates determined empirically for each line. Twenty-four hours after plating, cells were dosed with graded concentrations of ganetespib for 72 h. CellTiter-Glo® was added (50% v/v) to the cells, and the plates incubated for 10 min prior to luminescent detection in a SpectraMax® Plus 384 microplate reader (Molecular Devices, Sunnyvale, Calif., USA). Data were normalized to percent of control and IC50 values used to determine the sensitivity of each line. For the comparative analysis study with MEK and PI3K/mTOR inhibitors, A549, H2009, Calu-1, and H358 cells were treated with graded concentrations of ganetespib, AZD6244, or BEZ235 for 72 h and cell viability measured as above.
(§2) Breast cancer, cell lines, marker status, and IC50 in response to ganetespib at 72 hr (viability by CTG).
Basal breast cancer is a subtype believed to be more stem like and less differentiated than luminal breast cancer, and therefore more aggressive with limited treatment options. […]

The subject of another test is SNU-5. Description: 72 hr viability by Syto60, gastric cell line. Type of test: cell-based. Particulars: Homo sapiens, Syto60 (lower), read-out: ganetespib IC50.
For test [1], the system named is AGS (wt-p53 and mut-KRAS). Description: 72 hr viability by CTG, gastric cancer cells. Type of test: cell-based. Particulars: viability by CTG (upper). As to the method: (§3) Many of the oncoproteins associated with gastric cancer and Hsp90 client proteins including HER2, MET, RAS and the FGFR family. Ganetespib was evaluated for its effect on the growth of AGS (wt-p53 and mut-KRAS) and MKN45 (wt-p53, wt-KRAS, MET amplified) gastric cancer cells.

Test [2] relates to MKN45 (wt-p53, wt-KRAS, MET amplified). Description: 72 hr viability by CTG, gastric cancer cells. Particulars: Homo sapiens, MKN-45, viability by CTG (upper). Type of test: cell-based. As to the method: as §3
Test [3] deals with KRAS substrates, including BRAF and CRAF. Put plainly: KRAS substrates at the molecular level in KRAS mutant NSCLC cells. Format: cell-based.
Another test deals with A549 NSCLC cells. Put plainly: Mouse xenograft tumor model, ganetespib and BEZ235 (Example 9). Type of test: in vivo, mice. Particulars: ganetespib 50 mg/kg weekly i.v.; BEZ235 10 mg/kg 5 times a week p.o.; particularly at later time points; FIG. 8. An excerpt: Female immunodeficient CD-1 (nude) mice (Charles River Laboratories, Wilmington, Mass.) were maintained in a pathogen-free environment, and all in vivo procedures were approved by the Synta Pharmaceuticals Corp. Institutional Animal Care and Use Committee. A549 NSCLC cells (7.5×10^6) were subcutaneously implanted into the animals. Mice bearing established tumors (100-200 mm^3) were randomized into treatment groups of 8 and i.v. dosed via the tail vein with either vehicle, ganetespib formulated in 10/18 DRD (10% DMSO, 18% Cremophor RH 40, 3.6% dextrose, 68.4% water) or p.o. dosed with BEZ235 formulated in PEG300/NMP (90% PEG300, 10% N-Methylpyrrolidone). Animals were treated with ganetespib at 50 mg/kg weekly or BEZ235 at 10 mg/kg 5 times a week, either alone or in combination. Tumor growth inhibition was determined as described previously. See Proia et al, PLoS One. 2011; 6(4):e18552.

Another test concerns HIF-1α and VEGF. Put plainly: Western blot of HIF-1α and VEGF in pancreatic cancer cell lines. Format: cell-based. Particulars: 50 nM, 24 h. As to the method:
It's postulated that functional inhibition of Hsp90 by ganetespib can inhibit angiogenesis and growth in vitro and in vivo models of pancreatic cancer. PANC-1 and HPAC cell lines were treated with vehicle or G (50 nM) for 24 h and lysates were analyzed by Western blot. Egg CAM and matrigel plug assays were performed to quantify the effects of ganetespib on angiogenesis. Efficacy of ganetespib (100 mg/kg) was assessed in mice bearing HPAC and ASPC-1 xenograft.
Primary antibodies specific to Hsp90, HIF-1α, VEGF, Actin and HRP conjugated secondary antibodies (Santa Cruz Biotechnology, California and Cell Signaling Technology, USA) were used for Western blot. Ganetespib was provided by Synta Pharmaceuticals, Lexington, Mass. and Matrigel was purchased from BD Biosciences.
Cells were harvested at the end of treatment and lysed in the RIPA protein extraction buffer (Sigma-Aldrich, Saint Louis, Mo., USA) containing the protease inhibitor cocktail. Equal amounts of protein fractions of lysates were resolved over SDS-PAGE and transferred on to PVDF membrane. Membranes were incubated with primary antibodies followed by HRP-conjugated secondary antibodies. Bound antibodies were visualized using enhanced chemiluminescence. To confirm equal loading, membranes were verified and re-probed with an antibody specific for the housekeeping gene, anti-β-actin.

The subject of another test is HGC-27. Put plainly: 72 hr viability by Syto60, gastric cell line. Format: cell-based. Particulars: Homo sapiens, Syto60 (lower), read-out: ganetespib IC50.
The subject of another test is BT-474. Put plainly: 72 hr viability by CTG, breast cancer cell line. Particulars: Homo sapiens, BT-474, Luminal, ER+ PR+ HER2+, viability by CTG (2D). Format: cell-based. As to the method: as §1, §2
The next test has as its system MCF7. Put plainly: 72 hr viability by CTG, breast cancer cell line. Type of test: cell-based. Particulars: Homo sapiens, MCF7, Luminal, ER+ PR+. As to the method:
as §1, §2

Another test relates to OCUB-M. Description: 72 hr viability by CTG, breast cancer cell line. Type of test: cell-based. Particulars: Basal. How it is done: as §1, §2
For another test, the system named is MDA-MB-468. Put plainly: 72 hr viability by CTG, breast cancer cell line. Particulars: Homo sapiens, MDA-MB-468, Basal A. Format: cell-based. How it is done:
as §1, §2

In the next test the test system is SK-BR-3. Put plainly: 72 hr viability by CTG, breast cancer cell line. Type of test: cell-based. Particulars: Homo sapiens, SK-BR-3, Luminal, HER2+. As to the method:
as §1, §2

Consider `CC(C)c1cc(-c2nnc(O)n2-c2ccc3c(ccn3C)c2)c(O)cc1O` [ganetespib], for which the “Anticancer activity in the basal line MDA-MB-231” value in the test on MDA-MB-231 (72 hr viability assay, FIG. 1) is on record as “highly potent, killing all the cells”. The IC50 with MDA-MB-231 (Homo sapiens, MDA-MB-231, Basal B, 72 hr, viability by CTG) came out at 24 nM; with SNU-5 it was 31 nM; in test [1], 1.5 nM; in test [2] it was 0.5 nM; in the test with HGC-27 it was 11 nM; in the test with BT-474, 13 nM. Besides, the IC50 with MCF7 is 25 nM; with OCUB-M, 39 nM; with MDA-MB-468, 27 nM; in the test with SK-BR-3, 10 nM. Moreover, the “Effect on KRAS substrates” value in [3] was “induced the destabilization of several KRAS substrates, including BRAF and CRAF”. Moreover, in the test on A549 NSCLC cells, the “Average tumor volume as compared to vehicle” value is recorded as “significantly reduced”. Further, the “HIF-1α and VEGF protein levels” value in the test on HIF-1α and VEGF is “decreased HIF-1α a and VEGF expression; also recorded: decreased levels”.

For orientation: IC50 means the midpoint of a concentration-inhibition curve.
